Ki data for 13 compounds are collected here from US8778957B2, “CGRP receptor antagonists” (Merck Sharp & Dohme Corp., priority 2009, dated 2014).

Molecules are shown by their SMILES. pKi: −log10 of the molar value.

As usually defined, the pKi is the Ki on a negative log10 scale, so that one unit is a factor of ten.

The target in this experiment is recombinant human CL receptor/RAMP1 (Homo sapiens (Human), UniProt O60894+Q16602). As to the kind of experiment: Recombinant receptor binding assay (125I-hCGRP). The settings on record: membranes of HEK 293 cells expressing human CL receptor/RAMP1, 10 pM 125I-hCGRP. On the procedure: RECOMBINANT RECEPTOR: Human CL receptor (Genbank accession number L76380) was subcloned into the expression vector pIREShyg2 (BD Biosciences Clontech) as a 5′NheI and 3′ PmeI fragment. Human RAMP 1 (Genbank accession number AJ001014) was subcloned into the expression vector pIRESpuro2 (BD Biosciences Clontech) as a 5′NheI and 3′NotI fragment. HEK 293 cells (human embryonic kidney cells; ATCC #CRL-1573) were cultured in DMEM with 4.5 g/L glucose, 1 mM sodium pyruvate and 2 mM glutamine supplemented with 10% fetal bovine serum (FBS), 100 units/mL penicillin and 100 μg/mL streptomycin, and maintained at 37° C. and 95% humidity. Cells were subcultured by treatment with 0.25% trypsin with 0.1% EDTA in HBSS. Stable cell line generation was accomplished by co-transfecting 10 μg of DNA with 30 μg Lipofectamine 2000 (Invitrogen) in 75 cm^2 flasks. CL receptor and RAMP1 expression constructs were co-transfected in equal amounts. Twenty-four hours after transfection the cells were diluted and selective medium (growth medium+300 μg/mL hygromycin and 1 μg/mL puromycin) was added the following day. A clonal cell line was generated by single cell deposition utilizing a FACS Vantage SE (Becton Dickinson). Growth medium was adjusted to 150 μg/mL hygromycin and 0.5 μg/mL puromycin for cell propagation.
recombinant human CL receptor/RAMP1, sequence (Q16602 23-461): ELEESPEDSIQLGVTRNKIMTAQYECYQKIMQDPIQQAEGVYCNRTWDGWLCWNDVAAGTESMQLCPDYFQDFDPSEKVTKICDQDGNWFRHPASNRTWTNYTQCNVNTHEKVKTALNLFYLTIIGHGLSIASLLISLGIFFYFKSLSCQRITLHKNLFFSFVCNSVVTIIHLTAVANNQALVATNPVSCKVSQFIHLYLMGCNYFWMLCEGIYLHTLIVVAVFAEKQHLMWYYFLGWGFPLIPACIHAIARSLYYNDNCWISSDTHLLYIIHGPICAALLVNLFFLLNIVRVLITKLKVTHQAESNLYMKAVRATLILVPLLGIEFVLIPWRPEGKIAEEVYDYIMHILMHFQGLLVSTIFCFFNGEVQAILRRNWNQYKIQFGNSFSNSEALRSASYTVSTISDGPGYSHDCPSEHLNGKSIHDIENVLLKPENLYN
recombinant human CL receptor/RAMP1, sequence (O60894 27-148): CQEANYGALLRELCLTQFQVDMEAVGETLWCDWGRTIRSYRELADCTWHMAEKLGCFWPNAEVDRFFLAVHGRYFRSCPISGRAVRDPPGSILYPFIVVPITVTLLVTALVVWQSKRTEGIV
RECOMBINANT RECEPTOR BINDING ASSAY: Cells expressing recombinant human CL receptor/RAMP1 were washed with PBS and harvested in harvest buffer containing 50 mM HEPES, 1 mM EDTA and Complete protease inhibitors (Roche). The cell suspension was disrupted with a laboratory homogenizer and centrifuged at 48,000 g to isolate membranes. The pellets were resuspended in harvest buffer plus 250 mM sucrose and stored at −70° C. For binding assays, 20 μg of membranes were incubated in 1 ml binding buffer (10 mM HEPES, pH 7.4, 5 mM MgCl2, and 0.2% BSA) for 3 hours at room temperature containing 10 pM ^125I-hCGRP (GE Healthcare) and antagonist. The assay was terminated by filtration through 96-well GFB glass fiber filter plates (PerkinElmer) that had been blocked with 0.05% polyethyleneimine. The filters were washed 3 times with ice-cold assay buffer (10 mM HEPES, pH 7.4 and 5 mM MgCl2). Scintillation fluid was added and the plates were counted on a Topeount (Packard). Non-specific binding was determined and the data analysis was carried out with the apparent dissociation constant (Ki) determined by using a non-linear least squares fitting the bound CPM data to the equation below:
[formula] Where Y is observed CPM bound, Ymax is total bound counts, Ymin is non specific bound counts, (Ymax−Ymin) is specific bound counts, % Imax is the maximum percent inhibition, % I min is the minimum percent inhibition, radiolabel is the probe, and the Kd is the apparent dissociation constant for the radioligand for the receptor as determined by Hot saturation experiments.
As for `CN1C(=O)NC(=O)C12Cc1cc3ccc(CN4CCC(Cc5ccccc5)CC4)nc3cc1C2` (racemic) [Example 7, (±)-2-[(4-Benzylpiperidin-1-yl)methyl]-3′-methyl-6,8-dihydro-2′H,5′H-spiro[cyclopenta[g]quinoline-7,4′-imidazolidine]-2′,5′-dione], the pKi was 5.42.

Consider `CC1(C)CN(Cc2ccc3cc4c(cc3n2)C[C@]2(C4)C(=O)Nc3ncccc32)[C@@H](Cc2ccccc2)C(=O)N1` [Example 3, (7S)-2-{[(2S)-2-Benzyl-5,5-dimethyl-3-oxopiperazin-1-yl]methyl}-6,8-dihydrospiro[cyclopenta[g]quinoline-7,3′-pyrrolo[2,3-b]pyridin]-2′(1′H)-one], for which the pKi is 9.11.

`CN1C(=O)NC(=O)[C@]12Cc1cc3ccc(CN4C(=O)C(C)(C)Nc5ccccc54)nc3cc1C2` [Example 8, (7R)-2-[(3,3-Dimethyl-2-oxo-3,4-dihydroquinoxalin-1(2H)-yl)methyl]-3′-methyl-6,8-dihydro-2′H,5′H-spiro[cyclopenta[g]quinoline-7,4′-imidazolidine]-2′,5′-dione]: the negative logarithm of the Ki (pKi) was 7.46.

Regarding `O=C1Nc2ncccc2C12Cc1cc3ccc(CN4CCc5c([nH]c6ccccc56)C4)nc3cc1C2` (stereo not shown) [Example 45], the pKi is 6.74.

As to `CC(C)(C)OC(=O)N1CCN(Cc2ccc3cc4c(cc3n2)C[C@]2(C4)C(=O)Nc3ncccc32)CC1c1ccccc1` (stereo partly shown) [Example 61], the pKi is 7.24.

As for `O=C1Nc2ncccc2[C@@]12Cc1cc3ccc(CN4CCNCC4c4ccccc4)nc3cc1C2` (stereo partly shown) [Example 64], the pKi is 8.18.

As for `O=C1NC2(CCCC2)CN(Cc2ccc3cc4c(cc3n2)C[C@]2(C4)C(=O)Nc3ncccc32)C1c1ccccc1` (stereo partly shown) [Example 69], the pKi was 7.37.

On to `O=C1Nc2ncccc2[C@@]12Cc1cc3ccc(CN4CCNCC4)nc3cc1C2` [Example 76], for which the pKi was 9.14.

`O=C1N[C@H](Cc2ccccc2)CN(Cc2ccc3cc4c(cc3n2)C[C@]2(C4)C(=O)Nc3ncccc32)C1c1ccccc1` (stereo partly shown) [Example 84]: the pKi was 9.14.

Turning to `O=C1NC2(CCCC2)CN(Cc2ccc3cc4c(cc3n2)C[C@]2(C4)C(=O)Nc3ncccc32)C1Cc1ccccc1` (stereo partly shown) [Example 87], the pKi was 9.47.

As to `O=C1NC2(CCCC2)CN(Cc2ccc3cc4c(cc3n2)C[C@]2(C4)C(=O)Nc3ncccc32)[C@@H]1Cc1ccccc1` [Example 88], the pKi was 8.59.

Consider `CC1(Cc2ccccc2)C(=O)NC2(CCCC2)CN1Cc1ccc2cc3c(cc2n1)C[C@]1(C3)C(=O)Nc2ncccc21` (stereo partly shown) [Example 95], for which the pKi is 7.77.

Take `O=C1CC2(CCN(Cc3ccc4cc5c(cc4n3)CC3(C5)C(=O)Nc4ncccc43)CC2)Oc2ccccc21` (stereo not shown) [Example 114]: the pKi was 4.82.
